From the NIST ThermoML archive (doi:10.1016/j.jct.2018.02.019)
± gives the expanded uncertainty stated by the source.

Test: mn = molality of the nth substance listed, in mol/kg
Conditions: 298.15 K, Ring tensiometer

C[C@H](CCC(=O)NCCS(=O)(=O)[O-])[C@H]1CC[C@H]2[C@@H]3[C@H](O)C[C@@H]4C[C@H](O)CC[C@]4(C)[C@H]3C[C@H](O)[C@]12C.[Na+] [sodium taurocholate] + O
Conditions	surface tension liquid-gas [mN/m]
m1 = 0.00062	53.39 ± 2.1
m1 = 0.00093	50.95 ± 2.1
m1 = 0.00149	47.64 ± 2.1
m1 = 0.00208	45.58 ± 2.1
m1 = 0.00263	44.18 ± 2.1
m1 = 0.00313	43 ± 2.1
m1 = 0.00354	42.08 ± 2.1
m1 = 0.00392	41.48 ± 2.1
m1 = 0.00455	40.95 ± 2.1
m1 = 0.00489	40.5 ± 2.1
m1 = 0.00556	40.48 ± 2.1
m1 = 0.0062	40.51 ± 2.1
m1 = 0.00714	40.45 ± 2.1
m1 = 0.00804	40.5 ± 2.1
